Consider 1 compound from patent US20150104392A1, “COMPOSITIONS, BIOMARKERS AND THEIR USE IN THE TREATMENT OF CANCER” (Aptose Biosciences Inc., priority 2013, published 2015).

pIC50: −log10 of the molar value.

The test system of data set [1] is CYP450 enzymes. The data set is described as follows: CYP450 enzyme inhibition. The format is in vitro ADME.
Data set [2] relates to THP1. Description: KLF4/p21 induction, quantitative RT-PCR. The conditions noted are these: 0.5 μM, 16 hours. The class given is cell-based, human. The protocol:
(§1) To determine if KLF4 and/or p21 expressions are induced by LOR-253, AML cells (THP1, HL-60) were treated with DMSO (vehicle control) or 0.5 μM LOR-253 for 16 hours. Total RNA was extracted using the TRIzol Plus RNA Purification kit (Ambion, Life Technologies), according to the manufacturer's instructions. First strand cDNA was synthesized from 1-2 ug total RNA using random hexamer primers (Invitrogen) and the SuperScript II Reverse Transcriptase kit (Invitrogen). Quantitative RT-PCR was performed in the ABI Prism 7000 Sequence Detection System using cDNAs and human TaqMan Gene Expression Assay primer/probe sets for Krüppel-like factor 4 (KLF4), cyclin-dependent kinase inhibitor 1A (p21) and the ABI TaqMan Universal PCR master mix protocol. Gene expression was normalized with β-actin gene expression in the same sample, and fold changes in KLF4 or p21 were expressed relative to the corresponding expression level in the DMSO treated samples using the comparative CT method.

Data set [3] concerns HL-60. The data set is described as follows: KLF4/p21 induction, quantitative RT-PCR. The format is cell-based, human. To be noted: 0.5 μM, 16 hours. The protocol: as §1
Data set [4] concerns the target hERG (Homo sapiens, UniProt Q12809). The data set is described as follows: hERG tail current density. On the technique in general: Block of hERG is tested as a sign of cardiac risk.
Data set [5] has as its system THP-1 cells. The data set is described as follows: FITC-Annexin V / propidium iodide flow cytometry (apoptosis). The class given is cell-based. To be noted: 16 hours. The protocol: THP-1 cells were treated with DMSO, 0.5 or 1 uM of LOR-253 for 16 hours. Cells were washed twice with cold PBS and resuspended Annexin V binding buffer. 1×10^5 cells in 100 μL were stained with FITC-Annexin V and propidium iodide, and incubated for 15 minutes at room temperature. After staining, 400 ul of binding buffer was added and the cells were kept on ice until analyzed on a BD FACSCanto flow cytometer.
On the technique in general: Flow cytometry measures light scatter and fluorescence of single cells or particles in a stream.

The subject of data set [6] is Kasumi-1. The data set is described as follows: XTT antiproliferative assay. The conditions noted are these: Homo sapiens, 120 h; Kasumi-1, Acute myeloid leukemia; 5 days incubation. The class given is cell-based. The protocol:
(§2) Antiproliferative activity of LOR-253 was determined by XTT assay as follows. Adherent cells (2×10^3/well) in 100 μL of growth medium were seeded in 96-well cell culture plates and incubated overnight at 37° C. The medium was removed and replaced with a total volume of 100 μL growth medium containing LOR-253 (or 0.1% DMSO vehicle control), as described in the respective experiments. Suspension cells were plated (4-6×10^3/well) in 50 μL growth medium, and 50 μL growth medium containing LOR-253 (or 0.1% DMSO vehicle control) was added to each well. After incubation of the cells at 37° C. for 5 days, cell viability was quantitated with the use of sodium 3′-[1-(phenylamino-carbonyl)-3,4-tetrazolium}-bis(4-methoxy-6-nitro)benzene sulfonic acid hydrate (XTT) colorimetric assay (Roche). XTT labeling reagent (1 mg/mL) was mixed with electron-coupling reagent, following the manufacturer's instructions, and 50 μL of the mixture was added directly to the cells. The plates were further incubated at 37° C. for 4 h, and the absorbance of each well was measured at 490 nm with a multiwell spectrophotometer (Bio-Tek Instruments Inc.). The data were adjusted relative to the blank and expressed as a percentage of cell growth compared with the vehicle control. (Ref. Huesca et al., Mol Cancer Ther. 2009. 8:2586-96; Lorus publication on LOR-133)
(In general: Formazan colour is commonly taken as a measure of viable cells.)

In data set [7] the test system is DB. Description: XTT antiproliferative assay. The format is cell-based. To be noted: Homo sapiens, 120 h, Non-Hodgkin's Lymphoma, 5 days incubation. The procedure:
as §2

The test system of data set [8] is Jurkat. The data set is described as follows: XTT antiproliferative assay. The class given is cell-based. The conditions noted are these: Homo sapiens, 120 h, Acute lymphoblastic leukemia, 5 days incubation. The protocol:
as §2

The subject of data set [9] is EOL-1. The data set is described as follows: XTT antiproliferative assay. The conditions noted are these: Homo sapiens, EOL1, 120 h; EOL-1, Acute myeloid leukemia; 5 days incubation. The class given is cell-based. The protocol: as §2
The subject of data set [10] is U266B1. Description: XTT antiproliferative assay. The format is cell-based. To be noted: 120 h; U266B1, Multiple myeloma; 5 days incubation. The procedure: as §2
Data set [11] relates to MOLT-4. The data set is described as follows: XTT antiproliferative assay. The format is cell-based. To be noted: Homo sapiens, 120 h; MOLT-4, Acute lymphoblastic leukemia; 5 days incubation. The protocol: as §2
The test system of data set [12] is NOMO-1. The data set is described as follows: XTT antiproliferative assay. The format is cell-based. To be noted: Homo sapiens, 120 h; NOMO-1, Acute myeloid leukemia; 5 days incubation. The procedure: as §2
Data set [13] relates to CA46. The data set is described as follows: XTT antiproliferative assay. The format is cell-based. The conditions noted are these: Homo sapiens, 120 h; CA46, Non-Hodgkin's Lymphoma; 5 days incubation. The procedure:
as §2

Data set [14] has as its system CCRF-CEM. Description: XTT antiproliferative assay. To be noted: Homo sapiens, 120 h, Acute lymphoblastic leukemia, 5 days incubation. The format is cell-based. The protocol: as §2
Data set [15] relates to HL-60. Description: XTT antiproliferative assay. The format is cell-based. To be noted: Homo sapiens, 120 h; HL-60, Acute myeloid leukemia; 5 days incubation. The procedure:
as §2

Data set [16] has as its system RL. The data set is described as follows: XTT antiproliferative assay. The format is cell-based. To be noted: Homo sapiens, 120 h, Non-Hodgkin's Lymphoma, 5 days incubation. The procedure: as §2
The test system of data set [17] is Mino. The data set is described as follows: XTT antiproliferative assay. The format is cell-based. The conditions noted are these: Homo sapiens, 120 h, Non-Hodgkin's Lymphoma, 5 days incubation. The protocol: as §2
Data set [18] has as its system NB4. Description: XTT antiproliferative assay. The class given is cell-based. The conditions noted are these: Homo sapiens, NB-4, 120 h; NB4, Acute myeloid leukemia; 5 days incubation. The procedure: as §2
In data set [19] the test system is Ramos. Description: XTT antiproliferative assay. The class given is cell-based. To be noted: Homo sapiens, 120 h, Non-Hodgkin's Lymphoma, 5 days incubation. The protocol: as §2
The test system of data set [20] is H226 xenograft. Description: H226 xenograft model, dose and schedule. The class given is in vivo, mice. To be noted: groups 2, 3 and 4: 10 mg/kg-iv, schedules 3T-12B-3T, 2T-5B-2T, 3T-5B-3T, 2 cycles.
Data set [21] can be described thus: Repeat-dose toxicity study. The format is in vivo. The conditions noted are these: dogs, highest dose tested.

Chain of hERG (Q12809 whole entry): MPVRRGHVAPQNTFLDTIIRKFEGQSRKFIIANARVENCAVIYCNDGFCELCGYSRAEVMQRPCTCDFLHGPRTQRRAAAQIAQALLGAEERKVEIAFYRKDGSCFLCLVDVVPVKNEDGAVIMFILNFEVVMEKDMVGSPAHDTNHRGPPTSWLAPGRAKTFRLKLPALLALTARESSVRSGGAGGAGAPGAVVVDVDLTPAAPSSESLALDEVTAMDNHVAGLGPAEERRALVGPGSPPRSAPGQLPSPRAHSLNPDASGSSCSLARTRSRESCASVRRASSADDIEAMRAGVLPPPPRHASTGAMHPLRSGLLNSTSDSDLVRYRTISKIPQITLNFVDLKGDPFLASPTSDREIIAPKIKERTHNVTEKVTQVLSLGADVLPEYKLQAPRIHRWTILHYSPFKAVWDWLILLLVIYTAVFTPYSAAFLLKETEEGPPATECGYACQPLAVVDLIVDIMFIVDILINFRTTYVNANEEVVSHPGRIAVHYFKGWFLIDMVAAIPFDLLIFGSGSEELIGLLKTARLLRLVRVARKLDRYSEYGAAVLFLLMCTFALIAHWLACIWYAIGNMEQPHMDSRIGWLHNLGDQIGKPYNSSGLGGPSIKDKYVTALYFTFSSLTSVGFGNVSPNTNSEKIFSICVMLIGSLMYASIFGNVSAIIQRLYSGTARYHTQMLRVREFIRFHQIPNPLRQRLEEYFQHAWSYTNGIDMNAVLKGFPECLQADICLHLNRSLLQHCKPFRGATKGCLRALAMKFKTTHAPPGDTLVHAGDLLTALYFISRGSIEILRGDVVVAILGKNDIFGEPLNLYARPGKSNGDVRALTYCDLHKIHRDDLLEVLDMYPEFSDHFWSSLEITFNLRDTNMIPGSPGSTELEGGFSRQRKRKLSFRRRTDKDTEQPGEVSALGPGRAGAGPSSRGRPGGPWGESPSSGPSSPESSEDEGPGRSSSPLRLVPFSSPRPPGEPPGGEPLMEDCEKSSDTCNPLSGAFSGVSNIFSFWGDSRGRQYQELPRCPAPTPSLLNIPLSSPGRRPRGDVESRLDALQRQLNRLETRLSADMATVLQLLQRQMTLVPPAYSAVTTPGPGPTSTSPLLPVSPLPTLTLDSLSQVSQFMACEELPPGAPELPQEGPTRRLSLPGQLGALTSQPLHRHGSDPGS

In the case of `Cc1[nH]c2ccc(F)cc2c1-c1nc2c3cccnc3c3ncccc3c2[nH]1` [LOR-253], the “inhibition of CYP450 enzymes” value in [1] is listed as “no significant inhibition”. In addition, the “KLF4 expression (fold change vs DMSO)” value in data set [2] and in data set [3] was “increased expression” throughout. For the same compound, the “p21 expression (fold change vs DMSO)” value in [2] and in data set [3] was “increased expression” each time. In addition, in data set [4], the “inhibition of hERG tail current density” value is recorded as “no significant inhibition”. Further, the “Annexin V staining” value in [5] (0.5 or 1 uM) was “elevated Annexin V staining”. For the same compound, the “early apoptotic population (Q3: Annexin V+/PI−)” value in data set [5] (increasing concentration (0.5 to 1 uM)) is on record as “increase in the early apoptotic population”. The pIC50 (commonly −log10 of the IC50, conventionally taken in molar units) was 8.16 in data set [6]; 7.00 in data set [7]; 7.15 in data set [8]; 7.24 in [9]; 6.74 in data set [10]; 7.15 in data set [11]. For the same compound, the pIC50 in data set [12] was 6.92; in [13] it was 6.72; in data set [14], 7.41; in data set [15], 7.34; in data set [16] it was 6.72; in data set [17] it was 6.85. In addition, the pIC50 was 7.22 in data set [18] and 6.90 in data set [19]. The “tumor size, H226 xenograft” value in data set [20] is “effectively treated”. Moreover, the cardiovascular effects result in data set [21] is “no treatment-related cardiovascular effects”.
